Starred links: 1 amine or outer side, 2 acyl side, 3 side chain; linkers in the order of their positions; H or OH if unused. Positions of bridges follow the written chain, without caps; N, C: chain ends. Non-standard residues stand in square brackets, D forms with d. Residues, ends and D or L forms follow the SMILES beside them. *: point of attachment. X1 = CC(C)(C)OC(=O)N[C@H](CCC(=O)[*:1])C(=O)[*:2]; sY = N[C@@H](Cc1ccc(OS(=O)(=O)O)cc1)C(=O)O; Nle = CCCC[C@H](N)C(=O)O; Boc = CC(C)(C)OC(=O)*
Assays:
[1] = molecular target: cholecystokininergic receptors of the central nervous system (guinea-pig brain cortex); test: Binding test, competition with [3H]BOC-[NLe28,31]CCK27-33 on guinea-pig brain cortex; details: for Ki: [3H]BOC-[NLe28,31]CCK27-33 at 0.2 nM, guinea-pig brain cortex; for Selectivity factor: ratio given as drawing 11, matches KI pancreatic acini / KI cortex
Procedure: (§1) The products of the invention are tested in competitive experiments with respect to the ligand [^3 H]BOC-[NLe^28,31 ]CCK27-33 on guinea-pig brain cortex and guinea-pig pancreatic acini. […] The [^3 H]BOC-[NLe^28,31 ]CCK27-33 was used at a concentration of 0.2 nM for the brain and 0.5 nM for the pancreas.

guinea-pig ileum = test: Test of contraction-inducing activity on guinea-pig ileum; details: mean (±S.E.M.) of 3 independent experiments; read-out: Contraction-inducing activity on guinea-pig ileum, agonist activity EC50
Procedure: This test is carried out according to the method described by HUTCHINSON et al., Eur. J. Pharmacol., 69, 87 (1981). Strips of guinea-pig ileum of the terminal portion are rapidly removed and attached in the cell of an isometric gauge containing 25 cm^3 of Tyrode's solution. The solution is maintained at 37° C. while a stream of a gas composed of 95% oxygen and 5% CO2 is passed through bubble by bubble. The test compounds are tested under the conditions described by RUIZ-GAYO et al., Peptides, 6, 415 (1985).
The values shown in this table for the agonist activity represent the mean (±S.E.M.) of 3 independent experiments.

[2] = molecular target: guinea-pig pancreatic acini; test: Test of release of pancreatic amylase; format: cell-based; details: acini incubated 30 minutes at 37° C.; mean of 3 independent experiments in triplicate; read-out: Secretion of pancreatic amylase by guinea-pig acini, agonist activity EC50
Procedure: J. Physiol., 235, E 743 (1978). The acini are incubated for 30 minutes at 37° C. in the presence of the test product at different doses, according to the method described by GARDNER and JACKSON, J. Physiol., 270, 439 (1977). The amylase activity is determined using the PHADEBAS reagent (Pharmacia) according to the method described by CESKA et al., Experientia, 25, 555 (1969).
The values shown in this table represent the mean of 3 independent experiments, each performed in triplicate.

[3] = molecular target: T1, peripheral cholecystokininergic receptors (guinea-pig pancreatic acini) (Cavia porcellus, UniProt Q63931); test: Binding test, competition with [3H]BOC-[NLe28,31]CCK27-33 on guinea-pig pancreatic acini; details: [3H]BOC-[NLe28,31]CCK27-33 at 0.5 nM
T1 construct: on guinea-pig brain cortex and guinea-pig pancreatic acini; from tissue; host or cells: guinea-pig pancreatic acini
T1 sequence (Q63931 1-430): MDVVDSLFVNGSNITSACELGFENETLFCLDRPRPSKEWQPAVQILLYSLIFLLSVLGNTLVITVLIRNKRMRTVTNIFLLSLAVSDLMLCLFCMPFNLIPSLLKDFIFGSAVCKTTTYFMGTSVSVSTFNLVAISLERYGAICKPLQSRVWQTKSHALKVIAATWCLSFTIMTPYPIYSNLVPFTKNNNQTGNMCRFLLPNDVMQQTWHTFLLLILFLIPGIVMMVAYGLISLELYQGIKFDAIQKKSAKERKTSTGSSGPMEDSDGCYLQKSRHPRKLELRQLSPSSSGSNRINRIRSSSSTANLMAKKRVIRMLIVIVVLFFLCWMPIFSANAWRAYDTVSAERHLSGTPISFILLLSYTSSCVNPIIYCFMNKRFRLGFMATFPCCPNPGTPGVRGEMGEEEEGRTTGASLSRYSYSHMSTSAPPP
Procedure: as §1

| Structure (SMILES) | Ki [1] [nM] | Selectivity factor [1] | EC50 (guinea-pig ileum) [nM] | EC50 [2] [nM] | Ki [3] [nM] |
| --- | --- | --- | --- | --- | --- |
| CCCC[C@H](NC(=O)[C@H](Cc1c[nH]c2ccccc12)NC(=O)[C@H]1CCCCNC(=O)CC[C@@H](NC(=O)OC(C)(C)C)C(=O)N[C@@H](Cc2ccc(OS(=O)(=O)O)cc2)C(=O)N[C@@H](CCCC)C(=O)N1)C(=O)N[C@@H](CC(=O)O)C(=O)N[C@@H](Cc1ccccc1)C(N)=O [Example 7] (Boc-[dE][sY][Nle][dK]W[Nle]DF-NH2; lactam 1-4; N-terminus assumed) | 6.3 | 160 | > 10000 |  |  |
| CCCC[C@H](NC(=O)[C@H](Cc1c[nH]c2ccccc12)NC(=O)[C@H]1CCCCNC(=O)C[C@@H](NC(=O)OC(C)(C)C)C(=O)N[C@@H](Cc2ccc(OS(=O)(=O)O)cc2)C(=O)N[C@@H](CCCC)C(=O)N1)C(=O)N[C@@H](CC(=O)O)C(=O)N[C@@H](Cc1ccccc1)C(N)=O [Example 5] (Boc-[dD][sY][Nle][dK]W[Nle]DF-NH2; lactam 1-4; N-terminus assumed) | 5.1 | 179 | > 10000 | < 10000 |  |
| CCCC[C@H](NC(=O)[C@H](Cc1c[nH]c2ccccc12)NC(=O)[C@H]1CCCCNC(=O)[C@H](NC(=O)OC(C)(C)C)CCC(=O)N[C@@H](Cc2ccc(OS(=O)(=O)O)cc2)C(=O)N[C@@H](CCCC)C(=O)N1)C(=O)N[C@@H](CC(=O)O)C(=O)N[C@@H](Cc1ccccc1)C(N)=O [Example 16] ([sY][Nle][dK]W[Nle]DF-NH2; linker N-3 via X1; C-terminus assumed) | 0.49 | 1970 | > 10000 |  |  |
| CCCC[C@H](NC(=O)[C@H](Cc1c[nH]c2ccccc12)NC(=O)[C@H]1CCCCNC(=O)[C@H](NC(=O)OC(C)(C)C)CCC(=O)N[C@@H](Cc2ccc(O)cc2)C(=O)N[C@@H](CCCC)C(=O)N1)C(=O)N[C@@H](CC(=O)O)C(=O)N[C@@H](Cc1ccccc1)C(N)=O [Example 15] (Y[Nle][dK]W[Nle]DF-NH2; linker N-3 via X1) |  |  |  |  | 860 |

From patent publication US4985406A (Institut National de la Sante et de La Recherche Medicale …, priority 1987, dated 1991)
